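Dose response: 5 concentrations. Exposure: 48 h. Format: 96-well plates. Endpoint: linear interpolation; highest concentration if not reached. TGI: concentration producing complete growth inhibition.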
Columns and labels:
Assay in all cases: growth of human tumour cells (NCI), 48 h
[1] = system: NCI/ADR-RES ovarian
[2] = system: M14 melanoma
[3] = system: MDA-MB-231 breast
[4] = system: ACHN renal
[5] = system: PC-3 prostate
[6] = system: SNB-19 CNS
[7] = system: HCT-116 colon
[8] = system: DU-145 prostate
[9] = system: LOX IMVI melanoma
[10] = system: HOP-92 NSCLC
[11] = system: NCI-H23 lung
[12] = system: 786-0 renal
[13] = system: SF-268 CNS
[14] = system: MALME-3M melanoma
[15] = system: HCC-2998 colon
[16] = system: UACC-257 melanoma
[17] = system: K-562 leukemia
[18] = system: KM12 colon
[19] = system: IGROV1 ovarian
[20] = system: EKVX NSCLC
[21] = system: MCF7 breast
[22] = system: UO-31 renal
[23] = system: OVCAR-5 ovarian
[24] = system: OVCAR-8 ovarian
[25] = system: NCI-H226 lung
[26] = system: T-47D breast
[27] = system: RPMI-8226 leukemia
[28] = system: HCT-15 colon
[29] = system: NCI-H460 lung
[30] = system: A498 renal
[31] = system: BT-549 breast
[32] = system: NCI-H522 lung
[33] = system: OVCAR-4 ovarian
[34] = system: SNB-75 CNS
[35] = system: TK-10 renal
[36] = system: UACC-62 melanoma
[37] = system: CAKI-1 renal
[38] = system: U251 CNS
[39] = system: SN12C renal
[40] = system: SK-MEL-2 melanoma
[41] = system: MDA-MB-435
[42] = system: MDA-N
[43] = system: SK-MEL-28 melanoma
[44] = system: SF-539 CNS
[45] = system: HS 578T breast
[46] = system: SW-620 colon
[47] = system: COLO 205 colon
[48] = system: SR leukemia
[49] = system: OVCAR-3 ovarian
[50] = system: MOLT-4 leukemia
[51] = system: SK-MEL-5 melanoma
[52] = system: HT29 colon
[53] = system: A549 NSCLC
[54] = system: RXF 393 renal
[55] = system: HOP-62 NSCLC
[56] = system: SF-295 CNS
[57] = system: SK-OV-3 ovarian
[58] = system: CCRF-CEM leukemia
[59] = system: HL-60(TB) leukemia

## CC(=O)OC1CCC2(C)C(CCC3C2CC(=O)C2(C)C3CC(N3CC3)C2C(C)=O)C1 (centres undefined)
[1]
  TGI: 94.2 µM
[2]
  TGI: 51.7 µM
[3]
  TGI: 38.1 µM
[4]
  TGI: 29.6 µM
[5]
  TGI: 30 µM
[6]
  TGI: 63.4 µM
[7]
  TGI: > 100 µM
[8]
  TGI: > 100 µM
[9]
  TGI: 29.3 µM
[10]
  TGI: 43.1 µM
[11]
  TGI: 44.9 µM
[12]
  TGI: 64.4 µM
[13]
  TGI: 27.1 µM
[14]
  TGI: 36.5 µM
[15]
  TGI: 32 µM
[16]
  TGI: 32.5 µM
[17]
  TGI: 89.7 µM
[18]
  TGI: 43.4 µM
[19]
  TGI: 56.4 µM
[20]
  TGI: 40.9 µM
[21]
  TGI: 47.1 µM
[22]
  TGI: 46.4 µM
[23]
  TGI: > 100 µM
[24]
  TGI: 46.7 µM
[25]
  TGI: 37.8 µM
[26]
  TGI: 65.2 µM
[27]
  TGI: 83.6 µM
[28]
  TGI: 70.6 µM
[29]
  TGI: 33.9 µM
[30]
  TGI: 53.9 µM
[31]
  TGI: 40.1 µM
[32]
  TGI: 29.8 µM
[33]
  TGI: > 100 µM
[34]
  TGI: 42.6 µM
[35]
  TGI: 45.3 µM
[36]
  TGI: 36.5 µM
[37]
  TGI: 34.6 µM
[38]
  TGI: 37.8 µM
[39]
  TGI: 61 µM
[40]
  TGI: 36.1 µM
[41]
  TGI: 51.5 µM
[42]
  TGI: 56.2 µM
[43]
  TGI: > 100 µM
[44]
  TGI: 37.3 µM
[45]
  TGI: 40.9 µM
[46]
  TGI: > 100 µM
[47]
  TGI: 35.7 µM
[48]
  TGI: 64.7 µM
[49]
  TGI: 97.3 µM
[50]
  TGI: 34.4 µM
[51]
  TGI: 32.3 µM
[52]
  TGI: > 100 µM
[53]
  TGI: > 100 µM
[54]
  TGI: 42.3 µM
[55]
  TGI: > 100 µM
[56]
  TGI: 51 µM

## OC1c2ccccc2CCC1CN1CCN(CCOC(c2ccc(F)cc2)c2ccc(F)cc2)CC1 (centres undefined)
[1]
  TGI: 35.3 µM
[2]
  TGI: 27.6 µM
[3]
  TGI: 31.6 µM
[4]
  TGI: > 100 µM
[5]
  TGI: > 100 µM
[6]
  TGI: > 100 µM
[7]
  TGI: 20.8 µM
[8]
  TGI: 61.4 µM
[57]
  TGI: > 100 µM
[9]
  TGI: 27.1 µM
[10]
  TGI: 24.4 µM
[11]
  TGI: 32.2 µM
[12]
  TGI: 25 µM
[13]
  TGI: 39 µM
[14]
  TGI: 32.4 µM
[15]
  TGI: 18.9 µM
[16]
  TGI: 35.3 µM
[17]
  TGI: 27.5 µM
[18]
  TGI: > 100 µM
[19]
  TGI: 61.9 µM
[58]
  TGI: 15.1 µM
[21]
  TGI: 30.8 µM
[24]
  TGI: 28.5 µM
[25]
  TGI: 28.3 µM
[26]
  TGI: 52.9 µM
[27]
  TGI: 64.4 µM
[28]
  TGI: 23.4 µM
[29]
  TGI: 48 µM
[30]
  TGI: 26.9 µM
[31]
  TGI: 25.1 µM
[32]
  TGI: 33.6 µM
[33]
  TGI: > 100 µM
[34]
  TGI: 70.5 µM
[35]
  TGI: 42.4 µM
[36]
  TGI: 27.7 µM
[37]
  TGI: > 100 µM
[38]
  TGI: 28.3 µM
[39]
  TGI: 27.3 µM
[40]
  TGI: 36.3 µM
[41]
  TGI: 80.1 µM
[42]
  TGI: 36.3 µM
[43]
  TGI: 26.6 µM
[44]
  TGI: 20.1 µM
[45]
  TGI: 45.8 µM
[46]
  TGI: 38.2 µM
[47]
  TGI: 3.44 µM
[48]
  TGI: > 100 µM
[49]
  TGI: 42.6 µM
[50]
  TGI: > 100 µM
[51]
  TGI: 16.5 µM
[53]
  TGI: > 100 µM
[54]
  TGI: 19.3 µM
[55]
  TGI: 60.5 µM
[56]
  TGI: 46.1 µM

## c1cc(-c2ccc(-c3ccc(-c4ccc(-c5ccncc5)o4)cc3)o2)ccn1
[1]
  TGI: > 100 µM
[2]
  TGI: 32.2 µM
[3]
  TGI: 63.8 µM
[4]
  TGI: 64.6 µM
[5]
  TGI: 36.4 µM
[6]
  TGI: 39.7 µM
[7]
  TGI: 29.6 µM
[8]
  TGI: 28.2 µM
[57]
  TGI: 45.2 µM
[9]
  TGI: 42.8 µM
[10]
  TGI: 83.7 µM
[11]
  TGI: 39.1 µM
[12]
  TGI: 30.7 µM
[13]
  TGI: 38.1 µM
[59]
  TGI: 43.5 µM
[14]
  TGI: 34.7 µM
[15]
  TGI: 33.1 µM
[16]
  TGI: 29.6 µM
[17]
  TGI: 39 µM
[18]
  TGI: 32.2 µM
[19]
  TGI: 35.8 µM
[58]
  TGI: 30.2 µM
[20]
  TGI: 45 µM
[21]
  TGI: 38.7 µM
[22]
  TGI: 38 µM
[23]
  TGI: 55.6 µM
[24]
  TGI: 33.5 µM
[25]
  TGI: 56 µM
[26]
  TGI: 40.9 µM
[28]
  TGI: 28.3 µM
[29]
  TGI: 35.3 µM
[30]
  TGI: > 100 µM
[31]
  TGI: 30.7 µM
[32]
  TGI: 31.7 µM
[33]
  TGI: 65.4 µM
[34]
  TGI: 36.6 µM
[35]
  TGI: 31.2 µM
[36]
  TGI: 32.9 µM
[37]
  TGI: 46.7 µM
[38]
  TGI: 35.3 µM
[39]
  TGI: 45.5 µM
[41]
  TGI: 33.4 µM
[42]
  TGI: 31.1 µM
[43]
  TGI: 44.6 µM
[45]
  TGI: > 100 µM
[46]
  TGI: > 100 µM
[47]
  TGI: 30.2 µM
[48]
  TGI: 58.8 µM
[49]
  TGI: 63.8 µM
[50]
  TGI: 25.7 µM
[51]
  TGI: 26 µM
[52]
  TGI: 44.7 µM
[53]
  TGI: 35.7 µM
[54]
  TGI: > 100 µM
[55]
  TGI: 55.3 µM
[56]
  TGI: 30.9 µM

## Cc1ccc(C(=O)Nc2ccc(CP(=O)(O)O)cc2)cc1NC(=O)c1cccc(N)c1
[1]
  TGI: > 100 µM
[2]
  TGI: > 100 µM
[3]
  TGI: > 100 µM
[4]
  TGI: > 100 µM
[5]
  TGI: > 100 µM
[6]
  TGI: > 100 µM
[7]
  TGI: > 100 µM
[8]
  TGI: > 100 µM
[57]
  TGI: > 100 µM
[9]
  TGI: > 100 µM
[10]
  TGI: > 100 µM
[11]
  TGI: > 100 µM
[12]
  TGI: > 100 µM
[13]
  TGI: > 100 µM
[59]
  TGI: > 100 µM
[14]
  TGI: > 100 µM
[15]
  TGI: > 100 µM
[16]
  TGI: > 100 µM
[17]
  TGI: > 100 µM
[18]
  TGI: > 100 µM
[19]
  TGI: > 100 µM
[58]
  TGI: > 100 µM
[20]
  TGI: > 100 µM
[21]
  TGI: > 100 µM
[22]
  TGI: > 100 µM
[23]
  TGI: > 100 µM
[24]
  TGI: > 100 µM
[25]
  TGI: > 100 µM
[26]
  TGI: > 100 µM
[27]
  TGI: > 100 µM
[28]
  TGI: > 100 µM
[30]
  TGI: > 100 µM
[31]
  TGI: > 100 µM
[32]
  TGI: > 100 µM
[33]
  TGI: > 100 µM
[34]
  TGI: > 100 µM
[35]
  TGI: > 100 µM
[36]
  TGI: > 100 µM
[37]
  TGI: > 100 µM
[38]
  TGI: > 100 µM
[39]
  TGI: > 100 µM
[40]
  TGI: > 100 µM
[41]
  TGI: > 100 µM
[42]
  TGI: > 100 µM
[43]
  TGI: > 100 µM
[44]
  TGI: > 100 µM
[45]
  TGI: > 100 µM
[46]
  TGI: > 100 µM
[47]
  TGI: > 100 µM
[48]
  TGI: > 100 µM
[49]
  TGI: > 100 µM
[50]
  TGI: > 100 µM
[51]
  TGI: > 100 µM
[52]
  TGI: > 100 µM
[53]
  TGI: > 100 µM
[54]
  TGI: > 100 µM
[55]
  TGI: > 100 µM
[56]
  TGI: > 100 µM
